# Assay results from patent US20150181873A1, “HERBICIDE-RESISTANT SUNFLOWER PLANTS, POLYNUCLEOTIDES ENCODING HERBICIDE=RESISTANT ACETO HYDROXY ACID SYNTHASE LARGE SUBUNIT PROTEINS, AND METHODS OF USE” (NIDERA S.A., priority 2013, published 2015).
# Key:
# Assay type in all cases: in vivo, Helianthus annuus
# [1] = system: sunflower restorer line GIM 5-6 (A122T); assay: Greenhouse imazapir dose response, GIM 5-6; settings: GIM5-6 (A122T), 14 DAT
# Method: (§1) A greenhouse study was conducted to quantify and contrast the imazapir sensivity of the mutants A122T and A205V in different genetic backgrounds at the whole plant level in sunflower. Seeds of the different sunflower lines that were used in this study were obtained under field conditions.
# (§2) Seeds were sown in Petri dishes and, after germination, plantlets were transplanted to pots of 10 cm of diameter in a potting media consisting of equal parts of vermiculite, soil and sand. Plants were grown in a greenhouse under natural light conditions supplemented with 400 W sodium halide lamps to provide a 16 hrs daylength. Day/night temperatures were 25 and 20° C., respectively. At the V2 stage 10 plants of each genotype were randomly assigned to each treatment consisting of […] imazapir doses (0, 40, 80, 160, 240, 320, 400 and 480 g ai/ha), and a zero-time biomass determination. Experiment was arranged as a randomized block design with a full factorial (sunflower line×treatment) arrangement of treatments and 10 replications.
# (§3) On the day of herbicide application ten plants of each genotype were cut at the cotyledonal node and dried at 60° C. for 48 hrs zero-time for dried weight determination. […] Height was determined as the distance between the cotyledonal node and the apex of each plant. For root biomass determination, each plant was taken from the pot and the potting media was washed out from the roots. Above ground biomass data from each line were converted to biomass accumulation after application by subtracting the appropriate average zero-time biomass from each sample. Dry biomass data were converted to percentages of the untreated control plants within each line to allow direct comparisons between groups.
# [2] = system: Clearfield sunflower variety A; assay: Greenhouse spray injury rating, Clearfield variety A; settings: imazapyr 240 gm ai/ha, scale 0-9
# Source text: Sunflower lines S4897, Clearfield® sunflower varieties A, B, C and a conventional non-Clearfield variety were sprayed with three rates of imazamox (Raptor™), 100, 200 and 300 gm ai/ha plus 0.5% Sun It II and two rates of imazapyr (Arsenal™) 160 and 360 gm ai/ha plus 0.5% Sun It II when the plants were at the two to three leaf stage. Ratings were taken at 14 days after application (DAT) for injury. Injury was rated on a scale from 0 to 9 where 0=no injury to 9=dead plant. Twelve plants were sprayed per herbicide/rate treatment. Statistical analysis was conducted with STATGRAPHICS Plus 5.0 by using ANOVA and LSD procedures.
# After plants were sprayed, it was realized that a height difference between S4897 and other sunflower varieties would have impacted the actual herbicide dose that was delivered. The spray boom height had been calibrated against S4897 and since the other varieties were taller and closer to the boom they would have received a greater dose of herbicide. Rates were recalibrated for the other varieties to determine the approximate dose they would have received. Assessments were made as presented in Table 2 since it was not possible to make a direct rate comparison due to the effect of the height. For example injury scores were compare for S4897 treated imazamox rate 100 gm ai/ha to the other varieties treated at 75 gm ai/ha. The treatment dose of 300 gm ai/ha for line S4897 was equivalent to the treatment of 200 gm ai/ha for the other varieties, which […].
# [3] = system: sunflower hybrid TH6 (A122T); assay: Greenhouse imazapir dose response, TH6; settings: 14 DAT
# Method: as §1, §2, §3
# [4] = system: sunflower line IB920 (A205V); assay: Greenhouse imazapir dose response, IB920; settings: 14 DAT
# Method: as §1, §2, §3
# [5] = system: sunflower line GM40 (A122T); assay: Greenhouse imazapir dose response, GM40; settings: 14 DAT
# Method: as §1, §2, §3
smiles,measurement,setting,value
"CC(C)C1(C)N=C(c2ncccc2C(=O)O)NC1=O (centres unmarked) [Imazapyr, imazapyr]","biomass accumulation, % of untreated",[1]; 0.5x (40 g ai/ha),100.0%
same,"plant height, % of untreated",[1]; 0.5x (40 g ai/ha),100.0%
same,"root dry weight, % of untreated",[1]; 0.5x (40 g ai/ha),100%
same,"biomass accumulation, % of untreated",[1]; 1x (80 g ai/ha),96.4%
same,"plant height, % of untreated",[1]; 1x (80 g ai/ha),100.0%
same,"root dry weight, % of untreated",[1]; 1x (80 g ai/ha),88.0%
same,"biomass accumulation, % of untreated",[1]; 2x (160 g ai/ha),97.7%
same,"plant height, % of untreated",[1]; 2x (160 g ai/ha),99.1%
same,"root dry weight, % of untreated",[1]; 2x (160 g ai/ha),90.0%
same,"biomass accumulation, % of untreated",[1]; 3x (240 g ai/ha),95.8%
same,"plant height, % of untreated",[1]; 3x (240 g ai/ha),98.1%
same,"root dry weight, % of untreated",[1]; 3x (240 g ai/ha),98.0%
same,"biomass accumulation, % of untreated",[1]; 4x (320 g ai/ha),90.8%
same,"plant height, % of untreated",[1]; 4x (320 g ai/ha),91.0%
same,"root dry weight, % of untreated",[1]; 4x (320 g ai/ha),80.0%
same,"biomass accumulation, % of untreated",[1]; 5x (400 g ai/ha),81.9%
same,"plant height, % of untreated",[1]; 5x (400 g ai/ha),94.3%
same,"root dry weight, % of untreated",[1]; 5x (400 g ai/ha),80.0%
same,"biomass accumulation, % of untreated",[1]; 6x (480 g ai/ha),78.0%
same,"plant height, % of untreated",[1]; 6x (480 g ai/ha),85.8%
same,"root dry weight, % of untreated",[1]; 6x (480 g ai/ha),65.8%
same,Injury at 14 DAT,[2],5.0 c
same,Phytotoxicity Index,[3]; 0.5x (40 g ai/ha),0.5
same,"biomass accumulation, % of untreated",[3]; 0.5x (40 g ai/ha),100%
same,"plant height, % of untreated",[3]; 0.5x (40 g ai/ha),99.2%
same,"root dry weight, % of untreated",[3]; 0.5x (40 g ai/ha),100%
same,Phytotoxicity Index,[3]; 1x (80 g ai/ha),0.5
same,"biomass accumulation, % of untreated",[3]; 1x (80 g ai/ha),97.2%
same,"plant height, % of untreated",[3]; 1x (80 g ai/ha),98.6%
same,"root dry weight, % of untreated",[3]; 1x (80 g ai/ha),98.1%
same,Phytotoxicity Index,[3]; 2x (160 g ai/ha),0.5
same,"biomass accumulation, % of untreated",[3]; 2x (160 g ai/ha),97.9%
same,"plant height, % of untreated",[3]; 2x (160 g ai/ha),100.3%
same,"root dry weight, % of untreated",[3]; 2x (160 g ai/ha),96.2%
same,Phytotoxicity Index,[3]; 3x (240 g ai/ha),0.5
same,"biomass accumulation, % of untreated",[3]; 3x (240 g ai/ha),98.2%
same,"plant height, % of untreated",[3]; 3x (240 g ai/ha),99.6%
same,"root dry weight, % of untreated",[3]; 3x (240 g ai/ha),79.3%
same,Phytotoxicity Index,[3]; 4x (320 g ai/ha),0.5
same,"biomass accumulation, % of untreated",[3]; 4x (320 g ai/ha),97.8%
same,"plant height, % of untreated",[3]; 4x (320 g ai/ha),101.0%
same,"root dry weight, % of untreated",[3]; 4x (320 g ai/ha),78.4%
same,Phytotoxicity Index,[3]; 5x (400 g ai/ha),0.5
same,"biomass accumulation, % of untreated",[3]; 5x (400 g ai/ha),85.1%
same,"plant height, % of untreated",[3]; 5x (400 g ai/ha),87.0%
same,"root dry weight, % of untreated",[3]; 5x (400 g ai/ha),85.8%
same,Phytotoxicity Index,[3]; 6x (480 g ai/ha),0.5
same,"biomass accumulation, % of untreated",[3]; 6x (480 g ai/ha),79.5%
same,"plant height, % of untreated",[3]; 6x (480 g ai/ha),79.6%
same,"root dry weight, % of untreated",[3]; 6x (480 g ai/ha),57.3%
same,"biomass accumulation, % of untreated",[4]; 0.5x (40 g ai/ha),93.9%
same,"plant height, % of untreated",[4]; 0.5x (40 g ai/ha),96.2%
same,"root dry weight, % of untreated",[4]; 0.5x (40 g ai/ha),94.0%
same,"biomass accumulation, % of untreated",[4]; 1x (80 g ai/ha),87.9%
same,"plant height, % of untreated",[4]; 1x (80 g ai/ha),80.0%
same,"root dry weight, % of untreated",[4]; 1x (80 g ai/ha),89.6%
same,"biomass accumulation, % of untreated",[4]; 2x (160 g ai/ha),58.8%
same,"plant height, % of untreated",[4]; 2x (160 g ai/ha),61.5%
same,"root dry weight, % of untreated",[4]; 2x (160 g ai/ha),50.7%
same,"biomass accumulation, % of untreated",[4]; 3x (240 g ai/ha),46.4%
same,"plant height, % of untreated",[4]; 3x (240 g ai/ha),40.9%
same,"root dry weight, % of untreated",[4]; 3x (240 g ai/ha),37.3%
same,"biomass accumulation, % of untreated",[4]; 4x (320 g ai/ha),35.5%
same,"plant height, % of untreated",[4]; 4x (320 g ai/ha),27.9%
same,"root dry weight, % of untreated",[4]; 4x (320 g ai/ha),32.8%
same,"biomass accumulation, % of untreated",[4]; 5x (400 g ai/ha),33.9%
same,"plant height, % of untreated",[4]; 5x (400 g ai/ha),30.0%
same,"root dry weight, % of untreated",[4]; 5x (400 g ai/ha),25.4%
same,"biomass accumulation, % of untreated",[4]; 6x (480 g ai/ha),29.4%
same,"plant height, % of untreated",[4]; 6x (480 g ai/ha),27.1%
same,"root dry weight, % of untreated",[4]; 6x (480 g ai/ha),19.4%
same,"biomass accumulation, % of untreated",[5]; 0.5x (40 g ai/ha),96.5%
same,"plant height, % of untreated",[5]; 0.5x (40 g ai/ha),99.6%
same,"root dry weight, % of untreated",[5]; 0.5x (40 g ai/ha),100%
same,"biomass accumulation, % of untreated",[5]; 1x (80 g ai/ha),94.1%
same,"plant height, % of untreated",[5]; 1x (80 g ai/ha),97.4%
same,"root dry weight, % of untreated",[5]; 1x (80 g ai/ha),100%
same,"biomass accumulation, % of untreated",[5]; 2x (160 g ai/ha),97.6%
same,"plant height, % of untreated",[5]; 2x (160 g ai/ha),95.2%
same,"root dry weight, % of untreated",[5]; 2x (160 g ai/ha),100%
same,"biomass accumulation, % of untreated",[5]; 3x (240 g ai/ha),95.8%
same,"plant height, % of untreated",[5]; 3x (240 g ai/ha),93.0%
same,"root dry weight, % of untreated",[5]; 3x (240 g ai/ha),92.2%
same,"biomass accumulation, % of untreated",[5]; 4x (320 g ai/ha),88.3%
same,"plant height, % of untreated",[5]; 4x (320 g ai/ha),93.0%
same,"root dry weight, % of untreated",[5]; 4x (320 g ai/ha),96.1%
same,"biomass accumulation, % of untreated",[5]; 5x (400 g ai/ha),85.6%
same,"plant height, % of untreated",[5]; 5x (400 g ai/ha),93.9%
same,"root dry weight, % of untreated",[5]; 5x (400 g ai/ha),84.2%
same,"biomass accumulation, % of untreated",[5]; 6x (480 g ai/ha),76.8%
same,"plant height, % of untreated",[5]; 6x (480 g ai/ha),84.3%
same,"root dry weight, % of untreated",[5]; 6x (480 g ai/ha),74.3%
